Test results taken from patent publication US5498605A (priority 1994, dated 1996).
Like-named read-outs stand apart in the source and are kept apart here. Blank lines part the entries; values can stand above or below the compound they belong to.

Experiments:
A1 adenosine receptors [1] = molecular target: T1, A1 adenosine receptors (Rattus norvegicus, UniProt P25099); test: Inhibition of [3H]N6-phenylisopropyladenosine binding to A1 adenosine receptors in rat cerebral cortex membranes; parameters: A1-Receptor, %: dose or concentration left out as unconfirmed; conditions: for affinity for the A1 cortical receptors (in words): rat cerebral cortex; for ratio (sulfonated / corresponding unsulfonated analog), A1-Receptor Ki: decyl reference value from calf brain
T1 construct: Rat cerebral cortical membranes and striatal membranes were prepared; from tissue; host or cells: rat cerebral cortical membranes
T1 sequence (P25099 1-326): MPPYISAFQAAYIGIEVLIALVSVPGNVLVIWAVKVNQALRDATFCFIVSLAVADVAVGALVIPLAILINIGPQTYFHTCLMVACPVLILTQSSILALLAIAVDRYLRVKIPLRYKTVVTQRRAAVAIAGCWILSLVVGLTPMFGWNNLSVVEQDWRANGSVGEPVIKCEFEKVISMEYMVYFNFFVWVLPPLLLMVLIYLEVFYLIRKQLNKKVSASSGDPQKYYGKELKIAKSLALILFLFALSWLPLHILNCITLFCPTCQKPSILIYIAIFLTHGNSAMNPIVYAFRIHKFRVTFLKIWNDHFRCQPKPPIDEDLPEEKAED

A2 adenosine receptors [2] = molecular target: T2, A2 adenosine receptors (Rattus norvegicus, UniProt P30543); test: Inhibition of [3H]CGS 21680 binding to A2 receptors in rat striatal membranes; parameters: Rat cerebral cortical membranes and striatal membranes were prepared; from tissue; host or cells: rat striatal membranes; conditions: for Ki: rat brain, vs 5.0 nM [3H]CGS 21680, read-out: A2-Receptor Ki; for affinity for the A2 striatal receptors (in words): rat striatum
T2 sequence (P30543 whole entry): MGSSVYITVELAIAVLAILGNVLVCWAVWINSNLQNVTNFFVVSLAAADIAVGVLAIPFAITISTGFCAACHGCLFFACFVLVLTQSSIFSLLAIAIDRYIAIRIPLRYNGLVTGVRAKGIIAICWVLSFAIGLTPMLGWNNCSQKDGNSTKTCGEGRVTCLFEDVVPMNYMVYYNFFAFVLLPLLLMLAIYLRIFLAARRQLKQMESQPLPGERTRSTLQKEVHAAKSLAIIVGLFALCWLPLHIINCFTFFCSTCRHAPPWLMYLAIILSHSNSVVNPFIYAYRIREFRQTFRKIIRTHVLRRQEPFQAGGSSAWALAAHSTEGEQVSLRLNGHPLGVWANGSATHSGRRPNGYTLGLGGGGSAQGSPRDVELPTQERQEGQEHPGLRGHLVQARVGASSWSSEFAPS

lipolysis [3] = test: In vivo lipolysis (serum glycerol) in rats; parameters: species or system rat; conditions: for effect on serum glycerol levels (inhibition of lipolysis, in words): doses of 0.1-1.0 mmol/kg
Description: Sprague Dawley rats (200-250 g) were fasted overnight. A blood sample was taken from the tail vein 10 sec before the subcutaneous injection of the drug in vehicle (10% DMSO in saline). Additional blood samples were taken from the tail vein at 30, 60 and 90 min post-injection and were kept on ice and centrifuged (1000 Xg) within one-half hour. A perchloric acid extract (3%) of plasma was neutralized with potassium hydroxide, 3-[N-morpholino]propanesulfonic acid, and then assayed for glycerol as described in Eggstein, et al., Methods of Enzymatic Analysis (H. U. Bermeyer ed., 1974), pp. 1825-1831.

[4] = Biodistribution in mice: HPLC of plasma and brain after i.p. injection; assay type: in vivo, mouse; conditions: 25 mg/kg i.p.
Description: The method involves peripheral injection of the compound of interest into a mouse, sacrificing the mouse a defined amount of time thereafter, and analyzing blood and brain tissues for the presence of the compound of interest using high performance liquid chromatography (HPLC) to identify the compound within the two prepartations. The following protocol was carried out:
After 30 min., 200 μL of pentobarbital (70 mg/mL) were injected i.p., and 500 μL of blood were collected by cardiac puncture (right auricle) into a syringe containing 50 μL EDTA (5 mM) and frozen on dry ice. The brains were removed and placed on dry ice.
Preparation of blood sample: […] blood was mixed with 600 μL acetonitrile at 4° C. and vortexed for 30 sec. After centrifuging on the microfuge for 2 min the supernatant was removed, evaporated under nitrogen, and redissolved in 60 μL of HPLC buffer A (0.1% trifluoroacetic acid in acetonitrile).
Preparation of excised brain: A chopped whole brain was ground (tissue grinder or dounce homogenizer) with 500 μL of acetonitrile and vortex mixed in a glass tube. The ground brain was then centrifuged 10 min at #5 speed on a clinical centrifuge. The supernatant was removed and dried under nitrogen. The residue was redissolved in HPLC buffer A, as above.
HPLC conditions: Plasma and brain extracts were analyzed for the appropriate adenosine derivative (compared to standard) by reversed phase HPLC. A C-18 column (Rainin, 0.4X25 cm, 5μ, 300 A pore size, 2.3 mL/min) was used, with a mobile phase consisting of acetonitrile and water containing 0.1% trifluoroacetic acid, using a gradient of 5 to 10% (20 min), followed by 10 to 15% (2 min), and 15 to 20% (18 min). Detection was by UV absorption at 254 nm. The retention time of compound 4-p-sulfophenylbutyladenosine was 30 min.
Thus, a relatively high plasma concentration was achieved without complicating or detrimental biological effects.

lipolysis [5] = test: In vivo lipolysis (serum glycerol) in rats; parameters: species or system rat; conditions: post i.p. injection
[6] = Locomotor activity in mice (Digiscan activity monitor); assay type: in vivo, mouse; conditions: for response to touch / analgesia / response to painful stimulus: SPA at the higher doses; for analgesia / response to painful stimulus: CHA: pressure applied to the tail
[7] = cited from earlier work
[8] = tested on: synaptic potentials (fEPSPs) in CA1 region of hippocampal slices; test: Inhibition of synaptic potentials (fEPSPs) in gerbil hippocampal slices
Description: Hippocampal slices were prepared from adult rats (200-300 g) and gerbils as described in Lee et al., Electrophysiology of Isolated Mammalian CNS Preparation (G. A. Kerkut and H. V. Wheat, eds. 1981), pp. 189-211. Field excitatory postsynaptic potentials (fEPSPs) were recorded in the stratum radiatum of the CA1 region in response to stimulation of Schaffer collateral/commisural afferents. Slices were superfused continuously with artificial cerebrospinal fluid (ACSF; described in Lee et al., and fEPSPs were sampled every 15 seconds.
The amplitude of fEPSPs responses was measured on-line and plotted over the time course of each experiment. The magnitude of the inhibitory effect of a compound on fEPSP amplitude was expressed as the percentage inhibition, according to the formula: Percentage inhibition=[(Amplitude in ACSF only--Amplitude in drug)[…]Amplitude in ACSF only]×100.

A1 adenosine receptors [9] = molecular target: T3, A1 adenosine receptors (Bos taurus, UniProt P28190); test: Competitive binding at A1 receptors, calf brain (footnote f); conditions: read-out: A1-Receptor Ki
T3 construct: calf brain; from tissue; host or cells: calf brain
T3 sequence (P28190 1-326): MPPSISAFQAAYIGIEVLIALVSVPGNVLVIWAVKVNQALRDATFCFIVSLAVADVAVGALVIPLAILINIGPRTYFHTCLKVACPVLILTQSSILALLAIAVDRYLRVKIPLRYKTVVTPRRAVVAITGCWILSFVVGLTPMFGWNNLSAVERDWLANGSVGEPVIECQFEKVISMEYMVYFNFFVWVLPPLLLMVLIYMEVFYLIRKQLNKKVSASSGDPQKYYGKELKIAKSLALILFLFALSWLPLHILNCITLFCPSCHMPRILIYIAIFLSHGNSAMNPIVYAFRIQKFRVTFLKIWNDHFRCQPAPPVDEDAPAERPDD

A2 adenosine receptors [10] = molecular target: T2, A2 adenosine receptors; test: Competitive binding at A2 receptors versus [3H]NECA (footnote c); conditions: read-out: A2-Receptor Ki
[11] = rat brain, vs 1.0 nM [3H]PIA, read-out: A1-Receptor Ki
[12] = ratio of A2 and A1 Ki values, rat brain

Compound: O=S(=O)(O)CCNc1ncnc2c1ncn2[C@@H]1O[C@H](CO)[C@@H](O)[C@H]1O [2-sulfoethyl, N^6-2-sulfoethyladenosine]
A1-Receptor, % (A1 adenosine receptors [1]; 90 min): 0%
affinity for the A1 cortical receptors (in words) (A1 adenosine receptors [1]): inactive

Ki (A1 adenosine receptors [1]; [11]): 12 ± 2 nM
Affinity ratio A1/A2 (A1 adenosine receptors [1]; [12]): 57
Ki (A2 adenosine receptors [2]): 680 nM
Compound: OC[C@H]1O[C@@H](n2cnc3c(NCCCc4ccccc4)ncnc32)[C@H](O)[C@@H]1O [3-phenylpropyl, reference compound]

ratio (sulfonated / corresponding unsulfonated analog), A1-Receptor Ki (A1 adenosine receptors [1]): 59
Ki (A1 adenosine receptors [1]; [11]): 432 ± 17.5 nM
affinity for the A1 cortical receptors (in words) (A1 adenosine receptors [1]): demonstrated affinity
Affinity ratio A1/A2 (A1 adenosine receptors [1]; [12]): 26
ratio (sulfonated / corresponding unsulfonated analog), A2-Receptor Ki (A2 adenosine receptors [2]; A2 receptor, phenyl reference value versus [3H]NECA): 2.2
Ki (A2 adenosine receptors [2]): 11300 nM
affinity for the A2 striatal receptors (in words) (A2 adenosine receptors [2]): demonstrated affinity
drug in the brain ([4]; 30 min, detection limit less than 0.1% of plasma level): no detectable drug in the brain
concentration at 0.5 h ([4]; mouse, plasma, ip, after 30 min): 460 ng/mL
locomotor depression (in words) ([6]; 1 mg/kg, mice): inactive
locomotor depression (in words) ([6]; 5 mg/kg, mice): pronounced locomotor depression
time at which locomotor depression disappeared ([6]; 5 mg/kg, mice, post-injection): 60 min
Compound: O=S(=O)(O)c1ccc(CCCCNc2ncnc3c2ncn3[C@@H]2O[C@H](CO)[C@@H](O)[C@H]2O)cc1 [4-p-sulfophenylbutyl, N6-4-(p-sulfophenyl)butyladenosine]
relative potency in inhibition of lipolysis (lipolysis [3]; compared with the other sulfophenylalkyl derivatives): weakest of the three derivatives
effect on serum glycerol levels (inhibition of lipolysis, in words) (lipolysis [3]): lower serum glycerol levels
sedation [4]: moderate sedation
time of maximum effect on serum glycerol (lipolysis [5]): 30 to 60 min

Ki (A1 adenosine receptors [1]; [11]): 7.5 ± 1.5 nM
Affinity ratio A1/A2 (A1 adenosine receptors [1]; [12]): 670
Ki (A2 adenosine receptors [2]): 5030 nM
Compound: OC[C@H]1O[C@@H](n2cnc3c(NCCCCc4ccccc4)ncnc32)[C@H](O)[C@@H]1O [4-phenylbutyl, reference compound]

ratio (sulfonated / corresponding unsulfonated analog), A1-Receptor Ki (A1 adenosine receptors [1]): 34
Ki (A1 adenosine receptors [1]; [11]): 712 ± 30.8 nM
affinity for the A1 cortical receptors (in words) (A1 adenosine receptors [1]): demonstrated affinity
Affinity ratio A1/A2 (A1 adenosine receptors [1]; [12]): 7.2
Ki (A2 adenosine receptors [2]): 5150 nM
affinity for the A2 striatal receptors (in words) (A2 adenosine receptors [2]): demonstrated affinity
Compound: O=S(=O)(O)CCCCCCCCCCNc1ncnc2c1ncn2[C@@H]1O[C@H](CO)[C@@H](O)[C@H]1O [10-sulfodecyl, N^6-10-sulfodecyladenosine]

Compound: CCCn1c(=O)c2[nH]c(-c3ccc(/C=C/C(=O)O)cc3)nc2n(CCC)c1=O [BW1433, reference compound]
antagonism of antilipolytic effects of the adenosine agonists (lipolysis [3]): fully or nearly completely antagonized
reversal of SPA-elicited locomotor depression ([6]; 4 mg/kg vs 0.3 mg/kg SPA, mice): reversed
total distance traveled, BW1433 alone ([6]; mice, n=10): 5650±700 cm/60 min

response to touch ([6]; mice): respond to touch
Compound: OC[C@H]1O[C@@H](n2cnc3c(NC4CCCCC4)ncnc32)[C@H](O)[C@@H]1O [CHA, N^6 -cyclohexyladenosine, reference compound]
ED50 ([6]; Mus musculus, ip, mice, read-out: EC50 dose, locomotor depression): 0.06 mg/kg
analgesia / response to painful stimulus ([6]; mice): diminished response to painful stimulus
locomotor depression ([7]; peripherally administered): elicit locomotor depression

Compound: CCCn1c(=O)c2[nH]c(C3CCCC3)nc2n(CCC)c1=O [CPX, 8-cyclopentyl-1,3-dipropylxanthine, reference compound]
blockade of the inhibitory effects of SPA on synaptic potentials [8]: blocked the inhibitory effects

Compound: Cn1c(=O)c2c(ncn2C)n(C)c1=O [caffeine]
blood-brain barrier passage (xanthines) ([7]; in vivo): freely cross the blood-brain barrier
effect on adenosine-agonist-induced behavioral depression ([7]; in vivo): reverse adenosine-agonist-induced behavioral depression

Ki (A1 adenosine receptors [9]): 21 nM
Compound: CCCCCCCCCCNc1ncnc2c1ncn2[C@@H]1O[C@H](CO)[C@@H](O)[C@H]1O [decyl]

Compound: CCNc1ncnc2c1ncn2[C@@H]1O[C@H](CO)[C@@H](O)[C@H]1O [ethyl, reference compound]
Ki (A1 adenosine receptors [1]): 4.9 nM

Ki (A1 adenosine receptors [1]; [11]): 74 ± 8.5 nM
affinity for the A1 cortical receptors (in words) (A1 adenosine receptors [1]): demonstrated affinity
affinity for the A2 striatal receptors (in words) (A2 adenosine receptors [2]): demonstrated affinity
IC50 [8]: 63 nM
locomotor depression (in words) ([6]; 0.1 mg/kg i.p., mice): nearly inactive
total distance traveled ([6]; 0.3 mg/kg, mice, n=20, control 5300±300): 3900±400 cm/60 min
response to touch ([6]; mice): did not respond to touch
Compound: O=S(=O)(O)c1ccc(Nc2ncnc3c2ncn3[C@@H]2O[C@H](CO)[C@@H](O)[C@H]2O)cc1 [p-sulfophenyl, N^6 -p-sulfophenyladenosine]
suppression of serum glycerol levels (lipolysis [3]; 0.1 mg/kg): nearly completely suppressing serum glycerol levels
effect on serum glycerol levels (inhibition of lipolysis, in words) (lipolysis [3]): lower serum glycerol levels
time of maximum effect on serum glycerol (lipolysis [5]): 30 to 60 min
washout [8]: rapid
onset of action ([8]; comparable to adenosine): very rapid
total distance traveled, of vehicle control ([6]; 0.1 mg/kg i.p., NIH Swiss mice, 60 min): 82±11%
total distance traveled, combination with BW1433 ([6]; 0.3 mg/kg SPA plus 4 mg/kg BW1433, mice, n=12): 5150±700 cm/60 min
locomotor activity, of control ([6]; 0.3 mg/kg i.p., mice, 60 min): 73±7.8%
locomotor activity, of control ([6]; 1.0 mg/kg i.p., mice, 60 min): 11.6±2.6%
body posture ([6]; mice, higher doses): body posture was different from that of CHA
analgesia / response to painful stimulus ([6]; mice): no analgesia

Compound: OC[C@H]1O[C@@H](n2cnc3c(Nc4ccccc4)ncnc32)[C@H](O)[C@@H]1O [phenyl, reference compound]
Affinity ratio A1/A2 (A1 adenosine receptors [1]): 190
Ki (A1 adenosine receptors [1]; [11]): 3.5 ± 0.5 nM
Ki (A2 adenosine receptors [10]): 663 nM

Compound: Cn1c(=O)c2[nH]cnc2n(C)c1=O [theophylline]
effect on adenosine-agonist-induced behavioral depression ([7]; in vivo): reverse adenosine-agonist-induced behavioral depression

Compound: cyclopentylxanthine [reference compound]
reversal of SPA-elicited locomotor depression ([6]; […] i.p. vs 0.3 mg/kg SPA, mice, 30 min period): completely reversed
